How the values were obtained:
[1] = target: T1, METTL14 (Homo sapiens, UniProt Q9HCE5); assay: Bioluminescence enzyme assay, single form of METTL14; assay type: biochemical; settings: 36 μM eltrombopag; 300 nM METTL14, 5 h; read-out: % inhibition, single subunit enzyme form of METTL14
T1 construct: 10x His (thrombin-cleavable); made in house; host or cells: insect cells, baculovirus (pVL1393)
T1 sequence (Q9HCE5 1-456): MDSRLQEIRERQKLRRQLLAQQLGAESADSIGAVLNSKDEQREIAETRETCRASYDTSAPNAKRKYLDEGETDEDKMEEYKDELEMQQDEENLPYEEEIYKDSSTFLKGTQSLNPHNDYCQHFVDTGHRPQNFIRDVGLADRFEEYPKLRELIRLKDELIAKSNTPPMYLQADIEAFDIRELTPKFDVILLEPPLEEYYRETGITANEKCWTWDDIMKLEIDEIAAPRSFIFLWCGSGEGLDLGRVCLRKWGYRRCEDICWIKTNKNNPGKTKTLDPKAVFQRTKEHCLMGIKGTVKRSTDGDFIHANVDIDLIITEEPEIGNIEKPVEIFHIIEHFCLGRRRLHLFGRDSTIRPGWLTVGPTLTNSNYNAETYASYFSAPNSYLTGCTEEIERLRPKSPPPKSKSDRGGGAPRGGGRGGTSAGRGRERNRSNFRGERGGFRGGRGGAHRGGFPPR
Method: An enzymatic bioluminescence assay was established to identify the METTL3-14 inhibitor through screening. […] METTL3-14 activity was assessed by measuring the luminescence using a Victor multilabel reader (PerkinElmer, Waltham, MA, USA). The IC50 values were calculated by a nonlinear regression analysis using OriginPro 9.1 software (OriginLab).
To confirm the mechanism of action of eltrombopag in the METTL3-14 complex, 30 nM METTL3-14 and serially diluted eltrombopag were reacted with various concentrations of SAM or RNA substrate and saturating concentrations of the other substrate (3 μM SAM or 2 μM RNA substrate) for 20 min. To evaluate the inhibitory activity in a single form of METTL3 and METTL14, 1 μM of METTL3 and 300 nM of METTL14 were incubated with 1 μM of SAM, 500 nM of RNA substrates, and serially diluted eltrombopag for 5 h. To measure the inhibitory activity in the truncated form of the METTL3-14 complex, 1 μM of the truncated METTL3-14 complex was reacted with 1 μM of SAM, 500 nM of RNA substrates, and serially diluted eltrombopag for 5 h.

[2] = target: T2, G9a (Homo sapiens, UniProt Q96KQ7); assay: Methyltransferase selectivity panel (MT HotSpot radioisotope assay), G9a; assay type: biochemical; settings: 10 μM eltrombopag
T2 construct: purchased Reaction Biology (Malvern, PA, USA), contract assay
T2 sequence (Q96KQ7 1-1210): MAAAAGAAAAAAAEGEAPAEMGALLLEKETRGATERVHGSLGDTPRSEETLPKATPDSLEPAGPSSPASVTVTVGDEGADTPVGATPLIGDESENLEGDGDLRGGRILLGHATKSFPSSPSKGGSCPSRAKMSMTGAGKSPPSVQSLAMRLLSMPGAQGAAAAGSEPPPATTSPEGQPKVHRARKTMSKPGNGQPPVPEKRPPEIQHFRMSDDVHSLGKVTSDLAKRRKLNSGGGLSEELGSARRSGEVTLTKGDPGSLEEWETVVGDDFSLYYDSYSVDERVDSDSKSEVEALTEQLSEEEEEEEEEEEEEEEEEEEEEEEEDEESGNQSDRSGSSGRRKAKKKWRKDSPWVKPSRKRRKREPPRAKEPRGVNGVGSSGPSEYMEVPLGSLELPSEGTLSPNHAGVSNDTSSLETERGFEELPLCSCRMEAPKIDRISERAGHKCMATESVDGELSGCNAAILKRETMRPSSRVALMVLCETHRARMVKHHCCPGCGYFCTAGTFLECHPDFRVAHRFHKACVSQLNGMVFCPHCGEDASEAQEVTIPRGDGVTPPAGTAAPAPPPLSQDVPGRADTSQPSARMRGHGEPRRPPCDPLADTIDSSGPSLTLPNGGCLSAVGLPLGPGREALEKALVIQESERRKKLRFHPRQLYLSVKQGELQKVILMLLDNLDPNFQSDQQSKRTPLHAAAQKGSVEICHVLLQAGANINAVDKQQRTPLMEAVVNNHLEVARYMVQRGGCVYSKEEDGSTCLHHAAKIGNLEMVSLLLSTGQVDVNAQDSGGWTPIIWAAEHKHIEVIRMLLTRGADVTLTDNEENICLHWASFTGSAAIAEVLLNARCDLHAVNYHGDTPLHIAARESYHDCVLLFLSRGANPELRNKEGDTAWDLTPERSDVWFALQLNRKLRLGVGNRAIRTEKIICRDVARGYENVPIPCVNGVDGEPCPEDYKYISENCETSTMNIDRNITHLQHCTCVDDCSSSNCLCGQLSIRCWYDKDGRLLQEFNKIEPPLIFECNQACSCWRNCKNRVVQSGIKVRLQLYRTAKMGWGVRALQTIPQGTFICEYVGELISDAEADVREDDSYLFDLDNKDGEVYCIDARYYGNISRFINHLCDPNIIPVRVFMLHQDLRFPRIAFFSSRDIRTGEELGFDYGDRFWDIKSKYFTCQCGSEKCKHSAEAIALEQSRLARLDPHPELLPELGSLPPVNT
Method: The selectivity profile of eltrombopag was investigated by testing the level of inhibition in a methyltransferase panel. The inhibition of 7 […] methyltransferase was tested at Reaction Biology (Malvern, PA, USA) using a gold standard radioisotope-based MT assay (MT HotSpot^TM) with 10 μM of eltrombopag in duplicate.

CC1=NN(c2ccc(C)c(C)c2)C(=O)/C1=N\Nc1cccc(-c2cccc(C(=O)O)c2)c1O [Eltrombopag]
inhibition at 36 µM [1]: 59.3% | remaining activity at 10 µM [2]: 99 ± 3.3%

Reference: paper PMC9032718, “Eltrombopag as an Allosteric Inhibitor of the METTL3-14 Complex Affecting the m^6A Methylation of RNA in Acute Myeloid Leukemia Cells” (Pharmaceuticals, 2022)
